From patent publication US20230094832A1, “ANTIBODY-DRUG CONJUGATE COMPRISING IMMUNE CHECKPOINT INHIBITOR AND EXOSOME SECRETION INHIBITOR, AND PHARMACEUTICAL COMPOSITION COMPRISING SAME” (Research & Business Foundation Sungkyunkwan University, priority 2020, published 2023)

What was measured:
[1] = test system: melanoma cell line B16F10; experiment: Cytotoxicity evaluation by MTT assay; format: cell-based; conditions: B16F10 cells, 24 hours treatment at each concentration, FIG. 4
Experimental: In order to evaluate the cytotoxicity of Ab-VC-AMB prepared in Example 1, a melanoma cell line B16F10 (1×10^4) was attached to a 96-well plate, and after 24 hours, and the cell line was treated with Ab, AMB, AMB+Ab, and Ab-VC-AMB at each concentration, respectively. After 24 hours, the number of living cells was calculated by MTT assay. For this, 5 mg/ml MTT reagent was diluted 1/10 in the medium, and then 200 μl was added to each well of the 96-well plate. After the cells were cultured in an incubator for 1.5 hours, the MTT reagent was removed, and 200 μl of DMSO was added to each well of the 96-well plate. After the cells were cultured at room temperature for 30 minutes, cell viability was calculated by confirming the absorbance at 570 nm.

[2] = test system: major organs (liver, lungs, spleen, kidneys, and heart) and cancer tissue; experiment: Histopathological evaluation by H&E staining; format: in vivo, mice; conditions: cancer tissue compared to the control, FIG. 8
Experimental: A histopathological evaluation was performed by removing major organs and cancer tissue and staining the tissue by a hematoxylin and eosin (H&E) staining method. For this purpose, the major organs (liver, lungs, spleen, kidneys, and heart) and cancer tissue were removed, placed in a cassette, and fixed in a fixative solution. Then, after a paraffin block was prepared, a sample was prepared with a thickness of 6 μm. After the sample was stained with a Harris hematoxylin staining solution and an eosin-phloxine staining solution, the sample was observed through a slide scanner.

[3] = design: species or system mice; conditions: mouse, in vivo, iv
Experimental: (§1) In order to evaluate the therapeutic efficacy of Ab-VC-AMB prepared in Example 1 in a disease animal model, a cancer animal model was produced by subcutaneously inoculating B16F10 (1×10^6 cells), which is a melanoma cell line, into mice and allowing tumors to grow for 10 days (Day 0). Thereafter, on days 1, 4, 7 and 10, Ab-VC-AMB, saline, an antibody (Ab) or AMB was injected intravenously into the cancer animal model (Ab 5 mg/kg, AMB 10 mg/kg, Ab-VC-AMB 5 mg/kg), and then the therapeutic efficacy was evaluated for 11 days.

B16F10 melanoma tumors = experiment: Therapeutic efficacy (tumor volume) in B16F10 cancer animal model; format: in vivo; conditions: B16F10 mice, FIGS. 5 and 6
Experimental: as §1

[4] = test system: PD-L1 on the surface of exosomes; experiment: Exosomal PD-L1 quantified by ELISA; format: in vivo, mice; conditions: plasma exosomes after efficacy study, compared to the other groups, FIG. 10
Experimental: (§2) To evaluate the ability of Ab-VC-AMB prepared in Example 1 to inhibit the secretion of exosomes, after the animal model for which the therapeutic efficacy evaluation was completed was sacrificed, plasma was isolated, and exosomes were isolated and extracted using an exosome isolation kit (Invitrogen total exosome isolation reagent). The amount of protein was measured by performing BCA analysis (bicinchoninic acid assay) on the isolated exosomes. Albumin standards diluted to various concentrations and 150 μl of an unknown sample whose protein amount was not known were put into a 96-well plate, respectively. 150 μl of a working reagent containing bicinchoninic acid from a BCA protein […] kit (Pierce) was placed in each well containing each sample, and the resulting mixture was shaken and mixed well, and then incubated at 37° C. for 2 hours. Thereafter, the protein concentration of exosomes was calculated by measuring the absorbance at 562 nm using a microplate reader.
In addition, PD-L1 on the surface of exosomes, which is a factor known to suppress the activity of T cells, was quantified through ELISA analysis. A 96-well plate was coated with 2 μg/ml PD-L1 antibody incubated at 4° C. for 16 hours […]. […] Absorbance at 450 nm was measured using a microplate reader.

exosomes in plasma = experiment: Exosomal total protein amount in plasma exosomes (BCA analysis); format: in vivo, mice; conditions: plasma exosomes after efficacy study, compared to the Ab control, FIG. 9
Experimental: as §2

## COC(c1ccccc1)(c1ccccc1)[C@H](Oc1nc(C)cc(C)n1)C(=O)O [AMB, ambrisentan, reference compound]
[1]
  cytotoxicity (cell viability): does not have a direct relationship with toxicity affecting cells

## COC(c1ccccc1)(c1ccccc1)C(Oc1nc(C)cc(C)n1)C(=O)OCc1ccc(NC(=O)C(CCCNC(N)=O)CC(=O)C(NC(=O)CCCCCN2C(=O)CC(SC)C2=O)C(C)C)cc1 (centres unmarked) [Ab-VC-AMB]
[2]
  cell death area in the cancer tissue (H&E): a large cell death area in the cancer tissue was observed compared to the control
[1]
  cytotoxicity (cell viability): high biocompatibility
[3]
  changes in body weight (toxicity): does not show toxicity
B16F10 melanoma tumors; i.v. on days 1, 4, 7 and 10, Ab-VC-AMB 5 mg/kg vs Ab 5 mg/kg, 11 days
  volume of cancer compared to the Ab control: about 45%
B16F10 melanoma tumors; i.v. on days 1, 4, 7 and 10, Ab-VC-AMB 5 mg/kg, evaluated for 11 days
  cancer volume compared to the control to which saline was administered: 24%
[4]
  exosomal PD-L1 level: tendency to decrease remarkably
Exosomes in plasma
  amount of exosomal protein: statistically significant low amount of exosomal protein compared to the Ab control
